From patent US7981903B2, “2-[2-{phenylamino}-1H-pyrrolo[2,3-D]pyrimidin-4-yl)amino] benzamide derivatives as IGF-1R inhibitors for the treatment of cancer” (GlaxoSmithKline LLC, priority 2007, dated 2011)

Key:
NCI-H929 = experiment: Inhibition of cell proliferation (CellTiter-Glo or InCell analyzer), NCI-H929; type: cell-based; settings: Homo sapiens, 72 h / 3 days, values given as IC50 category
Method in brief: In one

ALK = ALK (Homo sapiens, UniProt Q9UM73); experiment: ALK enzyme assay (HTRF); type: biochemical; settings: 0.25 nM ALK, 15.0 μM ATP, values given as pIC50 category
Sequence of ALK (Q9UM73 19-1620): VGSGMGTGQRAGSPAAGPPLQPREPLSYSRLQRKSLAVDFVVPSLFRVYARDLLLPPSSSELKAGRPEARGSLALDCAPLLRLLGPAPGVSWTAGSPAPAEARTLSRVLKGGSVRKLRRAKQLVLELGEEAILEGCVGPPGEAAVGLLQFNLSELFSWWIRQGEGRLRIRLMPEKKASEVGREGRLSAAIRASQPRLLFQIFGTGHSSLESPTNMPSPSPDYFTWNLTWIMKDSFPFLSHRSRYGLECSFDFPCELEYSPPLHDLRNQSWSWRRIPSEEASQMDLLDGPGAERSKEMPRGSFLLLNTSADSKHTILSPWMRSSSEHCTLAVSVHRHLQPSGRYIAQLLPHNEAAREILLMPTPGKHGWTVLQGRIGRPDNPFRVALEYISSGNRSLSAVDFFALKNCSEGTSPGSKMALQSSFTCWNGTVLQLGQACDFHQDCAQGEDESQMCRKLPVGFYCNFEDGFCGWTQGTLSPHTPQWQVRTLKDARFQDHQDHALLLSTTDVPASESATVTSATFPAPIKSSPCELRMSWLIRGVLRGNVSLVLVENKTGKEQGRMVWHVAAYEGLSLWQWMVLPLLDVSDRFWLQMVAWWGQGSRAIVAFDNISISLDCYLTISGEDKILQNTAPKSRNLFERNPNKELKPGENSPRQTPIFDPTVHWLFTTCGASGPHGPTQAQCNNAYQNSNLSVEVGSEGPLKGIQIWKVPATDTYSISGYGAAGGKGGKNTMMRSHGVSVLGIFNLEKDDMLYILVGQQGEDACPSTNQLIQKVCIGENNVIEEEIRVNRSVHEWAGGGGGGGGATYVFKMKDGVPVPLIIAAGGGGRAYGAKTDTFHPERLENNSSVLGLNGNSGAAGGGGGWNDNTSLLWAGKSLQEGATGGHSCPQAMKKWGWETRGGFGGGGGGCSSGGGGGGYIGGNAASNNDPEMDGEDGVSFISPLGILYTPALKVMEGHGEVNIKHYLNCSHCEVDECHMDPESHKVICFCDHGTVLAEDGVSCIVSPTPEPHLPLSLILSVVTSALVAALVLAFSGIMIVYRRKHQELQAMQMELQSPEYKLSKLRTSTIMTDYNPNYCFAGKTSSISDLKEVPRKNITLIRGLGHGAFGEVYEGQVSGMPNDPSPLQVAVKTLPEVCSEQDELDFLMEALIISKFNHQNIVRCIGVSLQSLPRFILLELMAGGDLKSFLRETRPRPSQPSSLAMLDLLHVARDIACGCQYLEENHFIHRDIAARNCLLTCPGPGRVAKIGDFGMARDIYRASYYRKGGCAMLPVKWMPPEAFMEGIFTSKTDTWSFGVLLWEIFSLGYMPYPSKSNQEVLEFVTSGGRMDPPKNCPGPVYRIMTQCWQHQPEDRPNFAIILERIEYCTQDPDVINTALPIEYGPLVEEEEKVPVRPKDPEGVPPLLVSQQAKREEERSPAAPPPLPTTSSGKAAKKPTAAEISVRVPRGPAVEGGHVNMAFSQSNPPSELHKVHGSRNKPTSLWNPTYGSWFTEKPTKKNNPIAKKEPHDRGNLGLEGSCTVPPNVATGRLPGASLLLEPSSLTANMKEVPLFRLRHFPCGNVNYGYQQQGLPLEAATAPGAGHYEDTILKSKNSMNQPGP
Method in brief: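 Final compound range 0.00017 to 10 μM (twelve 1:3 dilutions). Kinase reaction with ATP and biotinylated synthetic peptide runs 120 min at 20° C, stopped with EDTA; phosphotyrosine detected by HTRF after 60 min. Inhibition referenced to DMSO (1%) and EDTA (0.1 M) controls, curve-fitted.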

| SMILES | IC50 (NCI-H929) [nM] | IC50 (ALK) [nM] |
| --- | --- | --- |
| COc1cc2c(cc1Nc1nc(Nc3cccc(F)c3C(=O)NCC(C)C)c3cc[nH]c3n1)N(C(=O)CN(C)C)CC2 [Example 157, 2-[(2-{[1-(N,N-dimethylglycyl)-5-(methyloxy)-2,3-dihydro-1H-indol-6-yl]amino}-1H-pyrrolo[2,3-d]pyrimidin-4-yl)amino]-6-fluoro-N-(2-methylpropyl)benzamide] | 250 to 1000 | 1.26 to 3.98 |
| COc1cc(N2CCC(C3CCN(CCS(C)(=O)=O)CC3)CC2)ccc1Nc1nc(Nc2cccc(F)c2C(N)=O)c2cc[nH]c2n1 [Example 112, 2-fluoro-6-({2-[(2-(methyloxy)-4-{1′-[2-(methylsulfonyl)ethyl]-4,4′-bipiperidin-1-yl}phenyl)amino]-1H-pyrrolo[2,3-d]pyrimidin-4-yl}amino)benzamide] | < 250 | 0.251 to 1 |
| COc1cc2c(cc1Nc1nc(Nc3cccc(F)c3C(N)=O)c3cc[nH]c3n1)CN(C(C)C)CC2 [Example 236, 2-fluoro-6-[(2-{[2-(1-methylethyl)-6-(methyloxy)-1,2,3,4-tetrahydro-7-isoquinolinyl]amino}-1H-pyrrolo[2,3-d]pyrimidin-4-yl)amino]benzamide] | < 250 | 1.26 to 3.98 |
| CCC(C)N1CCc2cc(OC)c(Nc3nc(Nc4cccc(F)c4C(N)=O)c4cc[nH]c4n3)cc2C1 (stereo not shown) [Example 237, 2-fluoro-6-[(2-{[6-(methyloxy)-2-(1-methylpropyl)-1,2,3,4-tetrahydro-7-isoquinolinyl]amino}-1H-pyrrolo[2,3-d]pyrimidin-4-yl)amino]benzamide] | < 250 | 1.26 to 3.98 |
| COc1cc2c(cc1Nc1nc(Nc3cc(F)cc(F)c3C(N)=O)c3cc[nH]c3n1)CN(CCF)CC2 [Example 239, 2,4-difluoro-6-[(2-{[2-(2-fluoroethyl)-6-(methyloxy)-1,2,3,4-tetrahydro-7-isoquinolinyl]amino}-1H-pyrrolo[2,3-d]pyrimidin-4-yl)amino]benzamide] | 250 to 1000 | 1.26 to 3.98 |
| CCNC(=O)c1c(F)cccc1Nc1nc(Nc2cc3c(cc2OC)CCN3C(=O)CN(C)C)nc2[nH]ccc12 [Example 126, 2-[(2-{[1-(N,N-dimethylglycyl)-5-(methyloxy)-2,3-dihydro-1H-indol-6-yl]amino}-1H-pyrrolo[2,3-d]pyrimidin-4-yl)amino]-N-ethyl-6-fluorobenzamide] | < 250 | 0.251 to 1 |
| COc1cc2c(cc1Nc1nc(Nc3ccc(F)c(F)c3C(N)=O)c3cc[nH]c3n1)N(C(=O)CN(C)C)CCC2 [Example 162, 6-[(2-{[1-(N,N-dimethylglycyl)-6-(methyloxy)-1,2,3,4-tetrahydro-7-quinolinyl]amino}-1H-pyrrolo[2,3-d]pyrimidin-4-yl)amino]-2,3-difluorobenzamide] | < 250 | 1.26 to 3.98 |
| COc1cc(N2CCN(C(C)C)CC2)c(F)cc1Nc1nc(Nc2cccc(F)c2C(N)=O)c2cc[nH]c2n1 [Example 48, 2-fluoro-6-[(2-{[5-fluoro-4-[4-(1-methylethyl)-1-piperazinyl]-2-(methyloxy)phenyl]amino}-1H-pyrrolo[2,3-d]pyrimidin-4-yl)amino]benzamide] | < 250 | 0.251 to 1 |
| CNC(=O)c1c(F)cccc1Nc1nc(Nc2cc3c(cc2OC)CCN3C(=O)CN2CCCC2)nc2[nH]ccc12 [Example 139, 2-fluoro-N-methyl-6-[(2-{[5-(methyloxy)-1-(1-pyrrolidinylacetyl)-2,3-dihydro-1H-indol-6-yl]amino}-1H-pyrrolo[2,3-d]pyrimidin-4-yl)amino]benzamide] | < 250 | 0.251 to 1 |
| CCCNC(=O)c1c(F)cccc1Nc1nc(Nc2cc3c(cc2OC)CCN3C(=O)CN(C)C)nc2[nH]ccc12 [Example 156, 2-[(2-{[1-(N,N-dimethylglycyl)-5-(methyloxy)-2,3-dihydro-1H-indol-6-yl]amino}-1H-pyrrolo[2,3-d]pyrimidin-4-yl)amino]-6-fluoro-N-propylbenzamide] | 250 to 1000 | 0.251 to 1 |
| CNC(=O)c1c(F)cccc1Nc1nc(Nc2cc3c(cc2OC)CCN3C(=O)CN(C)C)nc2[nH]cc(F)c12 [Example 253, 2-[(2-{[1-(N,N-dimethylglycyl)-5-(methyloxy)-2,3-dihydro-1H-indol-6-yl]amino}-5-fluoro-1H-pyrrolo[2,3-d]pyrimidin-4-yl)amino]-6-fluoro-N-methylbenzamide] | 250 to 1000 | 0.251 to 1 |
| CNCC(=O)N1CCc2cc(OC)c(Nc3nc(Nc4cccc(F)c4C(N)=O)c4cc[nH]c4n3)cc21 [Example 142, 2-fluoro-6-[(2-{[1-(N-methylglycyl)-5-(methyloxy)-2,3-dihydro-1H-indol-6-yl]amino}-1H-pyrrolo[2,3-d]pyrimidin-4-yl)amino]benzamide] | 250 to 1000 | 1.26 to 3.98 |
| CCN(CC)CC(=O)N1CCc2cc(OC)c(Nc3nc(Nc4cccc(F)c4C(N)=O)c4cc[nH]c4n3)cc21 [Example 136, 2-[(2-{[1-(N,N-diethylglycyl)-5-(methyloxy)-2,3-dihydro-1H-indol-6-yl]amino}-1H-pyrrolo[2,3-d]pyrimidin-4-yl)amino]-6-fluorobenzamide] | < 250 | 1.26 to 3.98 |
| CNC(=O)c1c(F)cccc1Nc1nc(Nc2cc3c(cc2OC)C(C)(C)CN3C(=O)CN(C)C)nc2[nH]ccc12 [Example 127, 2-[(2-{[1-(N,N-dimethylglycyl)-3,3-dimethyl-5-(methyloxy)-2,3-dihydro-1H-indol-6-yl]amino}-1H-pyrrolo[2,3-d]pyrimidin-4-yl)amino]-6-fluoro-N-methylbenzamide] | < 250 | 0.251 to 1 |
| COc1cc(N2CCN(C(C)C)CC2)ccc1Nc1nc(Nc2cccc(F)c2C(N)=O)c2cc[nH]c2n1 [Example 46, 2-fluoro-6-[(2-{[4-[4-(1-methylethyl)-1-piperazinyl]-2-(methyloxy)phenyl]amino}-1H-pyrrolo[2,3-d]pyrimidin-4-yl)amino]benzamide] | < 250 | 0.251 to 1 |
| COc1c(Nc2nc(Nc3cccc(F)c3C(N)=O)c3cc[nH]c3n2)ccc(N2CCN(C(C)C)CC2)c1F [Example 51, 2-fluoro-6-[(2-{[3-fluoro-4-[4-(1-methylethyl)-1-piperazinyl]-2-(methyloxy)phenyl]amino}-1H-pyrrolo[2,3-d]pyrimidin-4-yl)amino]benzamide] | 250 to 1000 | 1.26 to 3.98 |
| COc1cc2c(cc1Nc1nc(Nc3cccc(F)c3C(N)=O)c3cc[nH]c3n1)CN(CCF)CC2 [Example 233, 2-fluoro-6-[(2-{[2-(2-fluoroethyl)-6-(methyloxy)-1,2,3,4-tetrahydro-7-isoquinolinyl]amino}-1H-pyrrolo[2,3-d]pyrimidin-4-yl)amino]benzamide] | < 250 | 1.26 to 3.98 |
| COc1cc(N2CCN(C(C)C)CC2)ccc1Nc1nc(Nc2cc(Cl)cc(F)c2C(N)=O)c2cc[nH]c2n1 [Example 93, 4-chloro-2-fluoro-6-[(2-{[4-[4-(1-methylethyl)-1-piperazinyl]-2-(methyloxy)phenyl]amino}-1H-pyrrolo[2,3-d]pyrimidin-4-yl)amino]benzamide] | < 250 | 0.251 to 1 |
| CCCN1CCC(c2ccc(Nc3nc(Nc4cc(F)ccc4C(N)=O)c4cc[nH]c4n3)c(OC)c2)CC1 [Example 73, 4-fluoro-2-[(2-{[2-(methyloxy)-4-(1-propyl-4-piperidinyl)phenyl]amino}-1H-pyrrolo[2,3-d]pyrimidin-4-yl)amino]benzamide] | < 250 | 0.251 to 1 |
| COc1cc2c(cc1Nc1nc(Nc3cccc(F)c3C(N)=O)c3cc[nH]c3n1)CCN2C(=O)CN(C)C [Example 197, 2-[(2-{[1-(N,N-dimethylglycyl)-6-(methyloxy)-2,3-dihydro-1H-indol-5-yl]amino}-1H-pyrrolo[2,3-d]pyrimidin-4-yl)amino]-6-fluorobenzamide] | < 250 | 1.26 to 3.98 |
| COc1cc2c(cc1Nc1nc(Nc3cccc(F)c3C(N)=O)c3cc[nH]c3n1)CN(C(=O)CN(C)C)CC2 [Example 123, 2-[(2-{[2-(N,N-dimethylglycyl)-6-(methyloxy)-1,2,3,4-tetrahydro-7-isoquinolinyl]amino}-1H-pyrrolo[2,3-d]pyrimidin-4-yl)amino]-6-fluorobenzamide] | < 250 | 1.26 to 3.98 |
| COc1cc(N2CCC(N3CCN(CCS(C)(=O)=O)CC3)CC2)ccc1Nc1nc(Nc2cccc(F)c2C(N)=O)c2cc[nH]c2n1 [Example 115, 2-fluoro-6-[(2-{[2-(methyloxy)-4-(4-{4-[2-(methylsulfonyl)ethyl]-1-piperazinyl}-1-piperidinyl)phenyl]amino}-1H-pyrrolo[2,3-d]pyrimidin-4-yl)amino]benzamide] | < 250 | 0.251 to 1 |
| CNC(=O)c1c(F)cc(Cl)cc1Nc1nc(Nc2cc3c(cc2OC)CCCN3C(=O)CN2CCCC2)nc2[nH]ccc12 [Example 174, 4-chloro-2-fluoro-N-methyl-6-[(2-{[6-(methyloxy)-1-(1-pyrrolidinylacetyl)-1,2,3,4-tetrahydro-7-quinolinyl]amino}-1H-pyrrolo[2,3-d]pyrimidin-4-yl)amino]benzamide] | 250 to 1000 | 1.26 to 3.98 |
| CCCN1CCC(c2ccc(Nc3nc(Nc4cc(F)c(F)cc4C(N)=O)c4cc[nH]c4n3)c(OC)c2)CC1 [Example 98, 4,5-difluoro-2-[(2-{[2-(methyloxy)-4-(1-propyl-4-piperidinyl)phenyl]amino}-1H-pyrrolo[2,3-d]pyrimidin-4-yl)amino]benzamide] | < 250 | 0.251 to 1 |
| COc1cc(N2CCOCC2)ccc1Nc1nc(Nc2cc(F)ccc2C(N)=O)c2cc[nH]c2n1 [Example 83, 4-fluoro-2-[(2-{[2-(methyloxy)-4-(4-morpholinyl)phenyl]amino}-1H-pyrrolo[2,3-d]pyrimidin-4-yl)amino]benzamide] | 250 to 1000 | 5.01 to 200 |
| COc1cc(N2CCN(C(C)C)CC2)ccc1Nc1nc(Nc2cccc3c2C(=O)NC3)c2cc[nH]c2n1 [Example 199, 7-[(2-{[4-[4-(1-methylethyl)-1-piperazinyl]-2-(methyloxy)phenyl]amino}-1H-pyrrolo[2,3-d]pyrimidin-4-yl)amino]-2,3-dihydro-1H-isoindol-1-one] | < 250 | 0.251 to 1 |
